Assay results as given in the supplement of paper PMC10307832.

Key:
Assay in all cases: relative viability (nuclei count vs DMSO), 5 days (fraction); higher = more cells survive
[1] = compound: N=C1NC(=O)/C(=C/c2ccc(O)cc2)S1 [Mirin] + Cc1cc(Nc2cc(N3CCN(C)CC3)nc(Sc3ccc(NC(=O)C4CC4)cc3)n2)n[nH]1 [Tozasertib] (partner 0.1 µM)
Outline: (§1)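 Five library-drug doses in √10 steps were combined with a fixed anchor-drug dose, or a single drug was given alone, by pin tool to lung cancer cell lines in 1536-well plates the day after seeding. Nuclei were stained and counted after 5 days. Relative viability is the nuclei count in treated wells over that in vehicle wells, taken as the median of duplicate plates.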

[2] = compound: N=C1NC(=O)/C(=C/c2ccc(O)cc2)S1 [Mirin] + Cc1nc(Nc2ncc(C(=O)Nc3c(C)cccc3Cl)s2)cc(N2CCN(CCO)CC2)n1 [Dasatinib] (partner 0.075 µM)
Outline: as §1

[3] = compound: CCn1c(-c2nonc2N)nc2cnc(Oc3cccc(NC(=O)c4ccc(OCCN5CCOCC5)cc4)c3)cc21 + Cc1nc(NC(=O)N2CCC[C@H]2C(N)=O)sc1-c1ccnc(C(C)(C)C(F)(F)F)c1 [Alpelisib] (partner 2 µM)
Outline: as §1

[4] = compound: CCn1c(-c2nonc2N)nc2cnc(Oc3cccc(NC(=O)c4ccc(OCCN5CCOCC5)cc4)c3)cc21 + O=C(CCCCCCC(=O)Nc1ccccc1)NO [Vorinostat] (partner 1 µM)
Outline: as §1

Row | Cell Line | relative viability ([1]; first compound 0.25 µM) | relative viability ([1]; first compound 0.7906 µM) | relative viability ([1]; first compound 2.5 µM) | relative viability ([1]; first compound 7.906 µM) | relative viability ([1]; first compound 25 µM) | relative viability ([2]; first compound 0.25 µM) | relative viability ([2]; first compound 0.7906 µM) | relative viability ([2]; first compound 2.5 µM) | relative viability ([2]; first compound 25 µM) | relative viability ([3]; first compound 0.04 µM) | relative viability ([3]; first compound 0.1265 µM) | relative viability ([3]; first compound 0.4 µM) | relative viability ([3]; first compound 1.265 µM) | relative viability ([3]; first compound 4 µM) | relative viability ([4]; first compound 0.04 µM) | relative viability ([4]; first compound 0.1265 µM) | relative viability ([4]; first compound 0.4 µM) | relative viability ([4]; first compound 1.265 µM) | relative viability ([4]; first compound 4 µM) | relative viability ([2]; first compound 7.906 µM)
1 | PC-14 | 0.587 | 0.581 | 0.589 | 0.599 | 0.566 | 0.243 | 0.248 | 0.26 | 0.295 | 1.06 | 0.935 | 0.871 | 0.77 | 0.805 | 0.912 | 0.612 | 0.64 | 0.554 | 0.62 | 
2 | NCI-H2087 | 0.26 | 0.248 | 0.292 | 0.22 | 0.19 | 1.06 | 0.869 | 0.752 | 0.677 |  | 0.767 | 0.886 | 0.838 | 0.524 | 0.776 | 0.584 | 0.668 | 0.565 | 0.509 | 0.958
3 | A549 |  |  |  |  |  |  |  |  |  | 0.986 | 0.785 | 0.426 | 0.23 | 0.0785 |  |  |  |  |  | 
4 | NCI-H2342 | 0.474 | 0.636 | 0.625 | 0.49 | 0.459 | 0.35 | 0.342 | 0.327 | 0.317 |  |  |  |  |  | 0.834 | 0.746 | 0.752 | 0.468 | 0.743 | 0.289
5 | NCI-H1623 | 0.448 | 0.429 | 0.423 | 0.436 | 0.377 | 0.46 | 0.426 | 0.542 | 0.497 |  |  |  |  |  |  |  |  |  |  | 0.44
6 | SW 1573 | 0.181 | 0.195 | 0.234 | 0.188 | 0.108 | 0.466 | 0.506 | 0.605 | 0.295 | 0.968 | 0.823 | 0.48 | 0.397 | 0.276 | 0.966 | 0.534 | 0.37 | 0.304 | 0.237 | 0.361
7 | NCI-H2085 | 0.8 | 0.826 | 0.678 | 0.749 | 0.546 | 0.229 | 0.207 | 0.28 | 0.237 | 1.15 | 0.959 | 0.86 | 0.869 | 0.845 | 0.735 | 0.633 | 0.579 | 0.54 | 0.585 | 0.252
8 | NCI-H520 | 0.407 | 0.5 | 0.469 | 0.47 | 0.352 | 0.192 | 0.164 | 0.282 | 0.249 | 1.18 | 0.982 | 0.897 | 0.788 | 0.522 | 0.957 | 0.856 | 0.774 | 0.478 | 0.297 | 0.172
9 | Calu-6 |  |  |  |  |  |  |  |  |  | 0.861 | 0.827 | 0.582 | 0.477 | 0.455 |  |  |  |  |  | 
10 | SK-LU-1 | 0.332 | 0.325 | 0.346 | 0.213 | 0.209 | 0.209 | 0.163 | 0.161 | 0.224 | 1.17 | 0.821 | 0.599 | 0.42 | 0.349 | 0.895 | 0.654 | 0.593 | 0.422 | 0.42 | 0.209
11 | NCI-H1792 |  |  |  |  |  | 0.768 | 0.86 | 0.777 | 0.632 | 0.84 | 0.773 |  | 0.551 | 0.629 |  |  |  |  |  | 
12 | NCI-H1563 |  |  |  |  |  | 0.536 | 0.471 | 0.481 | 0.428 | 0.96 | 0.878 | 0.825 | 0.766 | 0.712 |  |  |  |  |  | 0.42
13 | NCI-H522 | 0.491 | 0.538 | 0.582 | 0.517 | 0.472 | 0.814 | 0.869 | 0.845 | 0.648 |  |  |  |  |  | 1.19 | 0.697 | 0.783 | 0.742 | 0.539 | 0.652
14 | HCC-44 | 1.06 | 0.433 | 0.93 | 0.824 | 0.404 |  |  |  |  | 0.816 | 0.896 | 0.659 | 0.456 | 0.344 | 1.13 | 1.18 | 1.14 | 1.07 | 1.09 | 
15 | NCI-H1299 |  |  |  |  |  |  |  |  |  | 0.991 | 0.891 | 0.836 | 0.912 | 0.861 |  |  |  |  |  | 
16 | ChaGo-K-1 | 0.234 | 0.222 | 0.241 | 0.215 | 0.171 | 0.504 | 0.575 | 0.541 | 0.39 |  |  |  |  |  | 1 | 0.684 | 0.514 | 0.536 | 0.55 | 0.542
17 | NCI-H1648 | 0.444 | 0.608 | 0.506 | 0.466 | 0.251 |  |  |  |  |  |  |  |  |  | 0.922 | 0.472 | 0.42 | 1.46 | 1 | 
18 | EBC-1 |  |  |  |  |  |  |  |  |  | 1.02 | 0.767 | 0.678 | 0.733 | 0.557 |  |  |  |  |  | 
19 | IA-LM |  |  |  |  |  |  |  |  |  | 1.17 | 0.929 | 0.871 | 0.825 | 0.687 | 1.08 | 0.997 | 1.03 | 0.998 | 1.39 | 
20 | NCI-H1703 |  |  |  |  |  |  |  |  |  | 0.385 | 0.428 | 0.254 | 0.209 | 0.164 |  |  |  |  |  | 
